# Laboratory results reported in PMC6611794, “Development of a high-throughput strategy for discovery of potent analogues of antibiotic lysocin E” (Nature Communications, 2019).
# Entries after “also recorded” stand apart in the source; their conditions may differ. Read-outs that look alike come from different tables or passages of the source. Where a SMILES comes first, the peptide text is derived from it. Bridges are numbered along the chain shown (N, C = ends). [ ]: non-standard residue; d: D form. The star is where a group is joined. Hexanoyl(3R-OH,5-Me) = CC(C)C[C@@H](O)CC(=O)*; dNMeF = CN[C@H](Cc1ccccc1)C(=O)O
# Assays:
# [1] = test system: S. aureus Smith ATCC 13709; assay: Antimicrobial activity assay of bead-derived peptides (one-bead, microscale); type: cell-based, Staphylococcus aureus; design: key to antimicrobial activity: ++: inhibition; +: partial inhibition; -: no inhibition; settings: for antimicrobial activity: 85% of one-bead-derived crude peptide, 40 μL Mueller Hinton Broth with 10% calf serum, 37 °C, 18 h
# Method: Finally, a microscale antimicrobial assay was developed to evaluate the activity of 1 in solution phase.
# Antimicrobial activity assay of bead-derived peptides. To the crude peptides in the 96-well round-bottom plate was added DMSO (1 µL/well). To the solution of peptides in each well was added a suspension of S. aureus Smith ATCC 13709 strain in 10% calf serum containing cation adjusted Müller Hinton Broth [40 µL, 2 ×10^5 colony forming units (CFU) , 21 g/L Müller Hinton Broth (Difco), 5 0 mg/L Ca2+ (adjusted with CaCl2• 2H2O), and 25 mg/L Mg 2+ (adjusted with MgCl 2•6H2O)]. The plate was incubated at 37 °C for 18 h, and the precipitation of the grown cells was examined. […]
# [2] = Method: (§1) Preparation of LUVs consisting of PC/PG/MK-4 or PC/PG/UQ-10. To a solution of egg yolk phosphatidylcholine (9.48 mg, 12.4 µmol) and egg yolk phosphatidylglycerol (9.66 mg, 12.4 µmol) in CHCl3 (0.208 mL) was added a solution of MK-4 (2) or UQ-10 (3) (0.313 µmol) in CHCl3 (21.8 µL). The solution was concentrated, and dried under vacuum to for m a lipid thin film. The thin film was hydrated and suspended in carboxyfluorescein-containing buffer solution (0.500 mL, 5 mM HEPES, 20 mM carboxyfluorescein , pH 7.5) by vortexing and sonication. After five-times freeze-thaw cycles, the lipid suspension was extruded 19 times through a polycarbonate filter with 0.40 µm of pore siz e in the diameter.
# (§2) The external carboxyfluorescein -containing buffer was replaced with a carboxyfluorescein -free buffer solution (20 mM HEPES, 1 mM EDTA, pH 7.5) through size exclusion chromatography using disposable PD -10 column. Concentration of egg yolk phosphatidylcholine was determined by using Phospholipid C -Test Wako.
# (§3) The final concentration of egg yolk phosphatidylcholine was adjusted to 4.0 µM with the carboxyfluorescein -free buffer solution, and the solution was used for membrane disruption ass ay.
# Membrane disruption assay. […]
# (§4) to various concentrations as 5-fold serial dilutions. The solution of peptides (2 µL/well) and the carboxyfluorescein-encapsulated LUV suspension (200 µL/well) were mixed in black polystyrene flat-bottom 96-well plates. The final concentration of peptides ranged from 2970 nM to 0.950 nM. The plates were vortexed at room temperature for 30 min, and then fluorescence of carboxyfluorescein (Ex. 490 nm/Em. 517 nm) of each well was measured at room temperature on Gemini EM microplate reader. Trion X-100/H2O (5/95, 2 µL), MeOH/H2O (4/6, 2 µL), and the LUV suspension were mixed in each plate to determine 100% lysis. MeOH/H2O (4/6, 2 µL) and the LUV suspension were mixed in each plate to determine 0% lysis.
# (§5) The membrane disruption activities of tested peptides (I) were normalized against 100% lysis by Triton X -100 […]
# (§6) (Imax) and 0% lysis by MeOH/H2O (4/6) (I0) as following, where Ix is the fluorescence intensity (Supplementary Equation 2).
# (§7) I = 100 × (Ix – I0) / (Imax – I0) (2)
# (§8) The membrane-disrupting activities were evaluated as half-maximal response (EC50, nM) values by means of three replicates. Sigmoidal curve fittings were performed on R2 with drc package (Supplementary Figs S7–S9).3 Two-parameter logistic model was applied for the fitting.
# [3] = test system: MRSA4; type: cell-based, Staphylococcus aureus; settings: 18 h
# Method: Antimicrobial activity assay of bead-derived peptides. […]
# plate was added DMSO (1 µL/well). […]
# precipitation of the grown cells was examined.
# Evaluation of antimicrobial spectra of peptides. The MIC assay was performed according to the Clinical and Laboratory Standards Institute protocols. The antimicrobial activities of the peptides were measured […]
# Soy Broth or Müller Hinton Broth agar plates. Bacterial inoculum was prepared by direct suspension of the […]
# and incubated at 37 °C for 18 h. […]
# inhibited growth of bacteria.
# [4] = Liposomal membrane disruption assay (carboxyfluorescein LUVs); type: biochemical
# Method: as §1, §2, §3
# as §4, with “Membrane disruption assay. Peptides 1, A1–A22, B1–B5, and C1–C5 were diluted with MeOH/H2O (4/6) to various” for “to various”
# as §5, §6, §7, §8
# [5] = test system: Staphylococcus aureus MSSA1; settings: for antimicrobial activity relative to parent 1: 10% BCS
# Method: Evaluation of antimicrobial spectra of peptides. The MIC assay was performed according to the Clinical and Laboratory Standards Institute protocols. The antimicrobial activities of the peptides were measured using the broth microdilution method.1 Serial dilutions of peptides were prepared in cation adjusted Müller Hinton Broth. Each dilution (100 µL) was dispensed to each well of the round-bottom plate to obtain final concentrations ranging from 64 µg/m L to 0.0075 µg/m L. Bacteria were grown at 37 °C overnight on Tryptic Soy Broth or Müller Hinton Broth agar plates. Bacterial inoculum was prepared by direct suspension of the colonies in 0.9% saline, and adjusted to obtain OD 625 0.08–0.13 using a spectrophotometer UV -1280 (Shimadzu). The resultant suspension was diluted with cation adjusted Müller Hinton Broth (1/20). The resultant mixture (10 µL) was inoculated to each well of the plates (approximately 5 ×10^4 CFU/well ), mixed, and incubated at 37 °C for 18 h. The MIC value was determined as the minimum concentration that inhibited growth of bacteria. To evaluate the antimicrobial activities of peptides in the presence of serum, 10% bovine calf serum in cation adjusted Müller Hinton Broth was used.
# [6] = read-out: EC50 PC/PG/2 1st, PC/PG/2 LUVs, 1st experiment
# [7] = read-out: EC50 PC/PG/2 2nd, PC/PG/2 LUVs, 2nd experiment
# [8] = read-out: EC50 PC/PG/2 3rd, PC/PG/2 LUVs, 3rd experiment
# [9] = read-out: EC50 PC/PG/2, 30 min, room temperature, mean ± SD of three independent experiments
# [10] = 30 min, room temperature, mean ± SD of three independent experiments, read-out: EC50 PC/PG/3
# [11] = PC/PG/3 LUVs, 1st experiment, read-out: EC50 PC/PG/3 1st
# [12] = PC/PG/3 LUVs, 2nd experiment, read-out: EC50 PC/PG/3 2nd
# [13] = PC/PG/3 LUVs, 3rd experiment, read-out: EC50 PC/PG/3 3rd
SMILES,"growth inhibition of S. aureus Smith ATCC 13709 ([1]; 10% BCS-doped Mueller Hinton Broth (40 μL), natural 1 0.04 μg per well or 85% of single bead-derived 1 (0.21 μg), duplicate)",antimicrobial activity [1],selectivity index (EC50 against PC/PG/3 divided by EC50 against PC/PG/2) [2],"EC50 [2, 6] [nM]","EC50 [2, 7] [nM]","EC50 [2, 8] [nM]","EC50 [2, 9] [nM]",MIC [3] [µg/mL],"EC50 [4, 10] [nM]","EC50 [4, 11] [nM]","EC50 [4, 12] [nM]","EC50 [4, 13] [nM]",MIC ([5]; 10% BCS (+)) [µg/mL],MIC ([5]; BCS free) [µg/mL],antimicrobial activity relative to parent 1 [5] [fold],antimicrobial activity ([1]; listed as KLVI)
"CC[C@H](C)[C@@H]1NC(=O)[C@@H](Cc2c[nH]c3ccccc23)NC(=O)[C@@H](CCC(N)=O)NC(=O)[C@H](CCC(=O)O)NC(=O)[C@@H](CCCNC(=N)N)NC(=O)[C@H](CC(C)C)NC(=O)[C@@H](Cc2ccccc2)N(C)C(=O)CNC(=O)[C@H](CO)NC(=O)[C@@H](CCCNC(=N)N)NC(=O)[C@@H](NC(=O)C[C@H](O)CC(C)C)[C@@H](C)OC(=O)[C@H]([C@@H](C)O)NC1=O [Peptide 1, Lysocin E] ({Hexanoyl(3R-OH,5-Me)}-T[dR]SG[dNMeF]L[dR]E[dQ][dW]IT; ester 1-C)",Complete growth inhibition; also recorded: completely inhibit the growth,++,4.7,16.7,34,7.9,19.5,0.25,92,58,167,51.6,0.0625,2.0,–,–
"CC[C@H](C)[C@@H]1NC(=O)[C@@H](Cc2c[nH]c3ccccc23)NC(=O)[C@@H](CCC(N)=O)NC(=O)[C@H](CCC(=O)O)NC(=O)[C@@H](CCCNC(=N)N)NC(=O)[C@H](CC(C)C)NC(=O)[C@@H](Cc2ccccc2)N(C)C(=O)CNC(=O)[C@H](C)NC(=O)[C@@H](CCCNC(=N)N)NC(=O)[C@@H](NC(=O)C[C@H](O)CC(C)C)[C@@H](C)OC(=O)[C@H]([C@@H](C)O)NC1=O [Peptide A1] ({Hexanoyl(3R-OH,5-Me)}-T[dR]AG[dNMeF]L[dR]E[dQ][dW]IT; ester 1-C)",–,+,–,25.9,4.68,6.1,12.2 ± 11.9,0.25,92.7 ± 31.3,128,82.1,68.1,–,–,4,–
"CC[C@H](C)[C@@H]1NC(=O)[C@@H](Cc2c[nH]c3ccccc23)NC(=O)[C@@H](C(C)C)NC(=O)[C@H](CCC(=O)O)NC(=O)[C@@H](CCCNC(=N)N)NC(=O)[C@H](CC(C)C)NC(=O)[C@@H](Cc2ccccc2)N(C)C(=O)CNC(=O)[C@H](C)NC(=O)[C@@H](CCCNC(=N)N)NC(=O)[C@@H](NC(=O)C[C@H](O)CC(C)C)[C@@H](C)OC(=O)[C@H]([C@@H](C)O)NC1=O [Peptide A2] ({Hexanoyl(3R-OH,5-Me)}-T[dR]AG[dNMeF]L[dR]E[dV][dW]IT; ester 1-C)",–,++,–,31.1,18.3,4.6,18 ± 13.3,0.25,–,89.7,133,57.5,–,–,4,–
"CC[C@H](C)[C@@H]1NC(=O)[C@@H](Cc2c[nH]c3ccccc23)NC(=O)[C@@H](C(C)C)NC(=O)[C@H](CCC(=O)O)NC(=O)[C@@H](CCCNC(=N)N)NC(=O)[C@H](CC(C)C)NC(=O)[C@@H](Cc2ccccc2)N(C)C(=O)CNC(=O)[C@H](CCCCN)NC(=O)[C@@H](CCCNC(=N)N)NC(=O)[C@@H](NC(=O)C[C@H](O)CC(C)C)[C@@H](C)OC(=O)[C@H]([C@@H](C)O)NC1=O [Peptide A3] ({Hexanoyl(3R-OH,5-Me)}-T[dR]KG[dNMeF]L[dR]E[dV][dW]IT; ester 1-C)",–,–,–,7.68,14.6,9.8,10.7 ± 3.5,0.125,103 ± 85,47.4,201,60.9,–,–,4,++ and +
